Assay results reported in patent US11613552B2, “Pharmaceutical agents, compositions, and methods relating thereto” (Alltech, Inc., priority 2017, dated 2023).

Tests used:
[1] = tested on: Lepr^db/db mice; experiment: Chronic treatment: fasting blood glucose and HbA1c in Lepr^db/db mice; assay type: in vivo, mouse
Protocol: Male Lepr^db/db mice at 38 days of age were intraperitoneally (ip) injected daily with physiological saline ([…]) containing 0.2% DMSO, Compound #C, Compound #50, Compound #68, and/or Compound #43 (25 μg selenium or sulfur equivalents of each compound per kilogram body weight, diluted in sterile physiological saline) for periods ranging from 43-90 days. Body weights of the above treated mice were recorded daily using a balance and any visible abnormal animal gross morphology and walking behavior were monitored daily. After the treatments, animals were fasted overnight and then subjected to blood glucose or HbA1c assays, glucose tolerance tests or tissue collections.
For comparative studies of any potential anti-diabetic effects of Compounds #43, #69 and #70, male Lepr^db/db mice at 41 days of age were intraperitoneally (ip) injected daily with physiological saline ([…]) containing 0.2% DMSO, Compound #43, Compound #69, or Compound #70 (25 μg selenium of each compound per kilogram body weight, diluted in sterile physiological saline). After the treatments for 43 days, animals were fasted overnight and then subjected to blood glucose and glucose tolerance tests. After daily treatments of these compounds for 90 days, sera from these animals were collected and then subjected to blood HbA1c assays.
After treatment with physiological saline or compounds or after the injection of a bolus of glucose, a small drop of blood from each mouse was collected by snipping the mouse tail tip. Blood glucose levels were determined using a Glucometer with a maximum capability for glucose measurement of 600 mg/dL.
After saline or compound treatments, a small drop of blood from the mouse tail was collected in an EDTA-coated eppendorf tube (to prevent blood coagulation) (Fisher Scientific), and then subjected to a HbA1c assay using the Crystal Chem's or Kamiya's mouse glycated hemoglobin A1c ELISA kit, according to the manufacturer's protocol. Also after the final treatments, mouse serum was collected and subjected to HbA1c assay using the Kamiya Biomeidcal Company's mouse HbA1c kit, according to the manufacturer's protocol.

[2] = tested on: differentiated C2C12 cells; experiment: Glucose uptake in differentiated C2C12 (skeletal muscle) cells; assay type: cell-based, mouse
Protocol: The mouse myoblast C2C12 cells were purchased from the American Type Culture Collection (ATCC, Manassas, Va.). These cells were amplified in DMEM media supplemented with 10% FBS. Equal number of C2C12 cells were then seeded on 96-well plates (5000 cells/well) and cultured in 10% FBS DMEM media at 37° C. for 5 days. Cells were replenished daily with fresh 10% FBS DMEM media. At day 5 of culture, C2C12 cells were differentiated using 0.5% horse serum (Sigma)-containing DMEM media (differentiation media) continuing for 7 days with daily replacement of fresh differentiation media, as previously described (Misu et al, Cell Metabolism 12, 483-495, 2010). At day 7 post-differentiation, differentiated C2C12 cells were rinsed with PBS twice and pretreated without or with 0.006% DMSO (Compound #43 solvent) or Compound #43 (300 or 600 ppb) in serum-free glucose-free DMEM media overnight. Then these cells were washed once with PBS, and then treated without (basal) or with insulin (200 nM), Compound #43 (300 and 600 ppb), or both insulin and Compound #43 in glucose/phenol red-free DMEM media at 37° C. for 1.5 hr. After treatment, media was removed and cells were washed once with PBS and incubated with 1 mM 2-deoxyglucose (2DG) at room temperature for 30 min. […] Luminescent signals were recorded using a Bio-Tek luminometer.

[3] = biological target: T1, Insrβ (Mus musculus, UniProt P15208); experiment: ELISA of phospho-Insrβ in livers of Lepr^db/db mice; assay type: in vivo; conditions: 0.136 mg/kg ip daily
T1 construct: gastrocnemius skeletal muscle and liver samples were collected and stored at −80° C; from tissue; host or cells: gastrocnemius skeletal muscle (A22) and liver (A24) of Lepr db/db mice
Protocol: Male Lepr^db/db mice (C57BL/6J strain, purchased from The Jackson Laboratory) at postnatal day 38 were intraperitoneally injected daily with physiological saline ([…]) containing 0.2% DMSO, or 0.136 mg of Compound #43 per kilogram body weight, diluted in the sterile physiological saline) for 52 days. After the treatment, gastrocnemius skeletal muscle and liver samples were collected and stored at −80° C.
Frozen skeletal muscle and liver tissues were minced in sterile ice-old PBS containing complete proteinase and phosphatase inhibitors (Thermo-Fisher Scientific, Waltham, Mass.) and subjected to homogenization using a tissue homogenizer (Thermo-Fisher Scientific, Waltham, Mass.). These tissue homogenates were diluted in Themo-Fisher's premade RIPA buffer (1 part homogenate/2 part of RIPA buffer) containing complete proteinase/phosphatase inhibitors to extract the proteins. Proteins in the homogenates were extracted in RIPA buffer at 4° C. overnight. These overnight-extracted protein/tissue lysates were centrifuged at 12000×g for 30 min at 4° C., and the protein levels in the supernatant of these tissue lysates were determined using the Pierce Micro-BCA protein assay kit (Thermo Scientific-Piece Biotechnology, Rockford, Ill.) according to the manufacturer's protocol. […]

[4] = 25 μg selenium/kg ip daily for 43 days from 41 days of age (FIG. 5)
[5] = 25 μg selenium/kg ip daily, 3 months (FIG. 4)

T1 sequence (P15208 753-1372 limits assumed): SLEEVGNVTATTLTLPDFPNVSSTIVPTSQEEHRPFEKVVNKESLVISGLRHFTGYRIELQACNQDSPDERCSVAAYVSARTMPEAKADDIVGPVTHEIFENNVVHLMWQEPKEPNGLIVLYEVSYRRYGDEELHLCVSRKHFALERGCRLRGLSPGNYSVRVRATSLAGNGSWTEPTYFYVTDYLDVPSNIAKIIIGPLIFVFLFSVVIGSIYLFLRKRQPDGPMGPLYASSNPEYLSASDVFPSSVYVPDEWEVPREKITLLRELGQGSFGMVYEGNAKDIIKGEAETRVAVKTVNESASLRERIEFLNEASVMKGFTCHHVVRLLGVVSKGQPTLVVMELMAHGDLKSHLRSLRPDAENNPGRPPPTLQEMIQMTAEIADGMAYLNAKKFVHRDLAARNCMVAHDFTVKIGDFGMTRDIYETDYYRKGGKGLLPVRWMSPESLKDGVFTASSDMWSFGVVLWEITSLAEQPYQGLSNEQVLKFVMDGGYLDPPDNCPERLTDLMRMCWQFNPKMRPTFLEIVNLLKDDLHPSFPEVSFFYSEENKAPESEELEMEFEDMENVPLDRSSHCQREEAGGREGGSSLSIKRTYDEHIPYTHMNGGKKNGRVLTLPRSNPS
T1 sequence (P15208 28-748 partner limits assumed): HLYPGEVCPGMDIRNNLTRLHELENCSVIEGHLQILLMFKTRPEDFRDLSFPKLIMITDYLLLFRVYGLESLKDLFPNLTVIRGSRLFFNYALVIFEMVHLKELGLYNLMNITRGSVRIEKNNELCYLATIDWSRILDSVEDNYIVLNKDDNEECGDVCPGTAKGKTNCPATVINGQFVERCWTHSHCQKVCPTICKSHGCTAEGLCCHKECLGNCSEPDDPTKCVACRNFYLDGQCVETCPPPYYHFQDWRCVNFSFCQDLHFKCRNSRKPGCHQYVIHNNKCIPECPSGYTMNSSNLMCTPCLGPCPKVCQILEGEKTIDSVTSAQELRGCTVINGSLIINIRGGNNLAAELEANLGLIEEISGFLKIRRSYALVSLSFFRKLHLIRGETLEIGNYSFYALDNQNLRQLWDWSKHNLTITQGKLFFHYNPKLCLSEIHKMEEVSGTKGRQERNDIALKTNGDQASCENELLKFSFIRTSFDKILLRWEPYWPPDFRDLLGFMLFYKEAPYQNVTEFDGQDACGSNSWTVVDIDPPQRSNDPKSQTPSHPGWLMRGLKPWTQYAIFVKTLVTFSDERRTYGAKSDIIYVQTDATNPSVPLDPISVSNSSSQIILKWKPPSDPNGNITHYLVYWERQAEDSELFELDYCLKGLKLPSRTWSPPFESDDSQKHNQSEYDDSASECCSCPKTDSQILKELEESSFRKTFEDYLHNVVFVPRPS

For `C[Se]C[C@H]1O[C@@H](n2cnc3c(N)ncnc32)C(OC(C)=O)C1OC(C)=O` (stereo partly drawn) [Compound #43, Adenosine, 5′-Se-methyl-5′-selino-, 2′,3′-diacetate], the “effect on fasting blood glucose levels” value ([1]; 25 μg selenium or sulfur/kg ip daily, 3 months (FIG. 4)) was “statistically significant decrease in fasting blood glucose levels”, the “decrease in fasting blood glucose levels vs saline” value [1, 4] was about 35% and the “fasting blood glucose levels” value [1, 4] was 188 mg/dL. For the same compound, the “effect on HbA1c levels” value ([1]; 25 μg selenium/kg ip daily for 90 days from 41 days of age (FIG. 5)) was “significant decrease of HbA1c levels”, the “reduction in serum HbA1c levels compared to saline” value ([1]; 25 μg selenium/kg ip daily from day 38, measured at 90 days of age (FIG. 3)) was about 20% and the “reduction of fasting blood glucose levels compared to controls” value ([1]; 25 μg selenium/kg ip daily from day 38, measured at day 81 (FIG. 3)) was “about 45%”. For the same compound, the “decrease of blood HbA1c levels compared to saline” value [1, 5] was “about 30%”, the fasting glucose levels [1, 5] was “about 135 mg/dL” and the “increase in glucose uptake” value ([2]; co-treatment insulin 200 nM and Compound #43 300 ppb) was 63%. For the same compound, the “increase of glucose uptake” value ([2]; co-treatment insulin 200 nM and Compound #43 600 ppb) was 79%, the “increase of phosphorylated Insrβ at Tyrosine 1146 in liver” value ([3]; 52 days (FIG. 22A)) was about 2.9 fold and the “increase of phosphorylated Insrβ at Tyrosine 1150/1151 in liver” value ([3]; 52 days (FIG. 22B)) was about 2.95 fold.
